Data from publication PMC12699179, “Investigating Metal and Fluorophore Controlled Intracellular Localization in Noble Metal Thiosemicarbazone Complexes” (Chemistry (Weinheim an Der Bergstrasse, Germany), 2025).
Like-named read-outs stand apart in the source and are kept apart here.

Assays:
[1] = Lipophilicity, n-octanol/PBS distribution (logD7.2); format: physicochemical; details: n-octanol/PBS distribution at pH 7.2; mean of three measurements ± SD
Excerpt: Having synthesized and assessed the stabilities of the complexes, we moved on to measure their lipophilicities at pH = 7.2 using the n‐octanol/PBS partition coefficient (Table 1).^[ [33], [34] ^] While the complexes were all highly lipophilic, the BODIPY‐conjugated complexes were more lipophilic than their coumarin analogs. In both sets of conjugates, the logD values followed the trend Pd(II) > Pt(II) > Au(III), with the monocationic Au(III) complexes being the least lipophilic.
7. Lipophilicity (logD7.2)
500 mL aliquots of purified octanol and PBS were thoroughly mixed in a 2 L separatory funnel and left overnight to saturate the two phases. For compound sets 5 and 7, 20 μM standard solutions were prepared in PBS-saturated octanol, respectively. 5 mL standard solutions containing the compound in question were then pipetted into 15 mL centrifuge tubes, and a 5 mL aliquot of the octanol-saturated PBS was added. The resulting samples were shaken for 10 min and allowed to rest overnight for 18 hours. The samples were then centrifuged for 30 min (3000 g, 20 °C), and aliquots of the octanol phase were analyzed via UV -Vis spectroscopy.
Experiments were conducted in triplicate. The concentrations of the compounds in the octanol phase were then quantified with respect to their λmax. […]
where A0 = absorbance of 20 μM compound in PBS-saturated octanol

HeLa cells [2] = experiment: MTT antiproliferative / cell viability assay; format: cell-based; details: for IC50: mean of three ± SD; for in vitro activity compared to its ligand: 72 hours
Method: We investigated the antiproliferative activities of compounds 4‒8 against HeLa cells using the standard 3‐(4,5‐dimethylthiazol‐2‐yl)‐2,5‐diphenyltetrazolium bromide (MTT) assay (Table 2). […]
8. Cell viability studies […]
media. All biological experiments were thus conducted using 5 mM stock solutions in DMSO that were diluted with culture medium to produce a final concentration of 0.5% DMSO for all experiments unless specified otherwise.
Cell viability experiments
HeLa cells were harvested, pelleted by centrifugation, and resuspended in cell culture medium. The MTT assays were carried out in 96 well plates at a starting density of 1500 cells per well in 100 µL of culture medium. The next day, a dilution series of 7 different concentrations was prepared for each evaluated compound. After 24 h of incubation, the cells were treated with 100 µL of culture medium containing the prepared conc entrations of the respective compounds to reach a final volume of 200 µL in each well. As a negative control, one series of cells was treated with the vehicle only (0.5% DMSO). […]
MTT dye (2.5 mg/mL). After a further incubation of 2 h, the medium was aspired off, and 200 µL DMSO was added to solubilize the precipitated formazan dye. The formazan absorption was measured on a BMG LABTECH CLARIOstar Plus plate reader at 550 nm, using a reference wavelength of 620 nm. Using the mean absorbance of each set of identically treated wells, a dose-response curve was produced and normalized to the wells containing untreated cells to allow for plate-to-plate comparison. The dose-response curves were then subjected to non-linear regression analysis performed in Microsoft Excel to determine IC50 values. Data is shown as the mean of three replicate experiments, and error bars represent the standard

HeLa cells [3] = experiment: Cellular uptake assay, metal content by ICP-MS; format: cell-based; details: 10 µM, 24 h, whole cell accumulation by ICP-MS
Method: Subsequently, we investigated the uptake of the conjugates 5 and 7 (at 10 µM) by incubating HeLa cells with the respective compounds for 24 hours and analyzing the final metal concentration inside the cells using inductively coupled plasma mass spectrometry (ICP‐MS). […]
HeLa cells were harvested and seeded in 100 mm × 21 mm cell culture dishes at a density of 200,000 cells per dish in 10 mL of growth medium. After 96 hours of incubation, when the cells had reached 90% confluency, the growth medium was aspirated and replaced with fresh medium containing 10 μM of a compound belonging to sets 5 or 7, respectively. The cells were incubated with the compound for 24 h, after which the medium was aspirated, and the cells were washed three times with 10 mL of PBS buffer. Subsequently, the washed cells were […]
trypsinized for 3 min, and the trypsin reaction was halted by the addition of 3 mL growth media.
Cells were suspended in the mixture, and the total cell count was determined using a Bio -Rad TC20 cell counter. The cell suspension was centrifuged at 5000 rpm for 5 minutes, and the supernatant was removed. The cells were then digested using 2 mL of aqua regia (3:1 v/v, 37% HCl and 70% HNO3, trace metal basis quality (Aldrich, purity ≥99.999%)) and sonicated at 60 °C for 16 h. The dissolved samples were then diluted with 13 mL of HPLC-grade water to reach a final volume of 15 mL. The total metal content of the samples was then determined via ICP-MS analysis (Thermo Scientific iCAP RQ, ASX-560) in Ar plasma in KED mode with He as collision gas. Reference to standards was made, and calibration curves were developed using commercial calibration standards (TraceCert®, Merck).
Fluorophore Compound Metal content
Table S3: Whole cell accumulation of compound sets 5 and 7 analyzed using ICP-MS and expressed in terms of total metal content. […]

HeLa cells [4] = system: HeLa cells; design: method as in PMID 40488845; details: 24 hours incubation, highest tested concentration 15 µM; cited from earlier work
[5] = design: method as in PMID 40488845; details: 1H NMR, over 24 hours; cited from earlier work
[6] = design: method as in PMID 40488845; details: UV/Vis, over 72 hours; cited from earlier work
[7] = Stability in cell culture medium by UV/Vis spectroscopy; format: physicochemical; details: 50 µM, DMEM with 10% fetal bovine serum, over 72 hours
Method: Likewise, the stability of these complexes was shown via UV/Vis spectrophotometry in cell culture medium over 72 hours.^[ [22] ^] The stability of the newly synthesized compounds was investigated similarly. […] However, the absorption profiles remained distinctly different from those of the corresponding free ligands, which was taken as evidence that the Pd(II) metal center remained chelated by the ligand.
(§1) Stability in Cell Culture Medium and Water
(§2) 5 mM stocks of the respective compounds in DMSO were diluted to produce a final concentration of 50 µM in water or Dulbecco's Modified Eagle's Medium (DMEM) containing 10% fetal bovine serum and 1% penicillin + streptomycin , respectively. The stability of the compounds was monitored via UV/Vis spectroscopy by recording the corresponding absorption profiles of the 50 µM solutions and comparing any changes to the profiles over […]

[8] = Stability in water by UV/Vis spectroscopy; format: physicochemical; details: 50 µM, after 72 hours
Method: In the case of the Au(III) complexes, both the BODIPY conjugated complex 7a and the parent Dp44mT complex 8a ostensibly decomposed in cell culture medium, as their absorption profiles in media lacked the characteristic charge transfer band at λmax ∼440 nm observed in water. […] However, a slight shift in the λmax coupled with a decrease in absorbance was observed (Figure 4D).
as §1, §2

HeLa cells [9] = experiment: Live-cell confocal microscopy, colocalization with organelle trackers; format: cell-based; details: 10 µM, 24 hours, ± standard deviation
Method: The subcellular behavior of the compounds was then assessed using a confocal microscope following incubation with HeLa cells (10 µM) for 6 hours and 24 hours, respectively (Figures S56, S57, and 5, 6). Moreover, we performed colocalization experiments with appropriate commercial organelle tracking dyes. As controls, we used the methyl and ethyl esters of 1 and 2, 1‐OMe and 2‐OEt, respectively. […] Moreover, the Pearson Correlation Coefficients (PCC) between 6 and the commercial lysosome tracker (LysoTracker deep red) channel improved over time from 0.63 to 0.81. Additionally, the distribution was distinct from 2‐OEt, corroborating that the Dp44mT scaffold directed the localization of the conjugates. Therefore, attaching BODIPY had no discernible effect on the lysosomal accumulation of Dp44mT.
Figure S55: Excitation (Exc) and emission (Em) spectra of BODIPY conjugates 6 and 7 at 10 µM in water. For (A) 6 and (B) 7a compounds, λex = 502 nm and λem = 519 nm; Slitwidth: […]; Sensitivity: low and medium, respectively. For (C) 7b and (D) 7c, λex = 519 nm and λem = 519 nm; Slitwidth: […]; Sensitivity: medium […]
collected at the appropriate emission wavelengths. […] The corresponding Pearson's Correlation Coefficients (PCCs) were calculated using Fiji (version 1.54f).[7] […]

[10] = 24 hours incubation, read-out: IC50 24 hours
[11] = 72 hours incubation, read-out: IC50 72 hours
[12] = Homo sapiens, 24 hours incubation, read-out: IC50 24 hours
[13] = Homo sapiens, 72 hours incubation, read-out: IC50 72 hours

Compound | logD 7.2 [1] | IC50 (HeLa cells [2]; [10]) [µM] | IC50 (HeLa cells [2]; [11]) [µM] | Metal content (HeLa cells [3]) [pg/cell] | IC50 (HeLa cells [2]; [12]) [µM] | IC50 (HeLa cells [2]; [13]) [µM] | stability in cell culture medium [7] | stability in water [8] | Pearson Correlation Coefficient (PCC) with ER Tracker (HeLa cells [9]) | effect on cell viability after 24 hours (HeLa cells [4]) | stability in DMSO-d6 [5] | stability in cell culture medium [6] | in vitro activity compared to its ligand (HeLa cells [2])
CN(C)C1=N[N+]2=C(c3cccc(CCNC(=O)CCCNC(=O)c4cc5cc6c7c(c5oc4=O)CCCN7CCC6)n3)c3cccc[n+]3[Pt-2]2([Cl])[S]1 (stereo not shown) [Compound 5b] | 1.47 ± 0.03 | > 15 | 58.2 ± 4.3 | 0.016 ± 0.005 |  |  |  |  |  | did not affect cell viability | stable | stable | 
CC1=CC(C)=[N+]2C1=Cc1ccc(CCC(=O)NCCc3cccc(C(=NNC(=S)N(C)C)c4ccccn4)n3)n1[B-]2(F)F [Compound 6] |  |  |  |  | > 15 | 0.8 ± 0.1 |  |  |  |  |  |  | 
CN(C)C(=S)NN=C(c1ccccn1)c1cccc(CCNC(=O)CCCNC(=O)c2cc3cc4c5c(c3oc2=O)CCCN5CCC4)n1 [Compound 4] |  |  |  |  | > 15 | 0.8 ± 0.1 |  |  |  | did not affect cell viability | stable |  | 
CN(C)C1=N[N+]2=C(c3cccc(CCNC(=O)CCCNC(=O)c4cc5cc6c7c(c5oc4=O)CCCN7CCC6)n3)c3cccc[n+]3[Au-]2([Cl])[S]1.F[P-](F)(F)(F)(F)F (stereo not shown) [Compound 5a] | 0.99 ± 0.02 | > 15 | 3.1 ± 0.3 | 0.032 ± 0.016 |  |  | similarly decomposed |  |  |  |  |  | fourfold lower activity
CN(C)C(=S)NN=C(c1ccccn1)c1ccccn1 [Dp44mT, di‐2‐pyridylketone‐4,4‐dimethyl‐3‐thiosemicarbazone, reference compound] |  |  |  |  | > 15 | 0.009 ± 0.0003 |  |  |  | did not affect cell viability |  |  | 

Second part, led by results:

logD 7.2 [1] | IC50 (HeLa cells [2]; [10]) [µM] | IC50 (HeLa cells [2]; [11]) [µM] | Metal content (HeLa cells [3]) [pg/cell] | IC50 (HeLa cells [2]; [12]) [µM] | IC50 (HeLa cells [2]; [13]) [µM] | stability in cell culture medium [7] | stability in water [8] | Pearson Correlation Coefficient (PCC) with ER Tracker (HeLa cells [9]) | Compound | effect on cell viability after 24 hours (HeLa cells [4]) | stability in DMSO-d6 [5] | stability in cell culture medium [6] | in vitro activity compared to its ligand (HeLa cells [2])
1.53 ± 0.07 | > 15 | 0.6 ± 0.1 | 0.035 ± 0.007 |  |  | decomposed | only mild degradation |  | CC1=CC(C)=[N+]2C1=Cc1ccc(CCC(=O)NCCc3cccc(C4=[N+]5N=C(N(C)C)[S][Au-]5([Cl])[n+]5ccccc54)n3)n1[B-]2(F)F.F[P-](F)(F)(F)(F)F (stereo not shown) [Compound 7a] |  |  |  | comparable to their respective ligands
 | > 15 | 0.009 ± 0.0005 |  |  |  | decomposed | only mild degradation |  | CN(C)C1=N[N+]2=C(c3ccccn3)c3cccc[n+]3[Au-]2([Cl])[S]1.[Cl][Au-][Cl] (stereo not shown) [Compound 8a] |  |  |  | comparable to their respective ligands
1.80 ± 0.04 | > 15 | 4.3 ± 0.3 | 0.013 ± 0.002 |  |  | remained stable |  | 0.51 ± 0.01 | CC1=CC(C)=[N+]2C1=Cc1ccc(CCC(=O)NCCc3cccc(C4=[N+]5N=C(N(C)C)[S][Pt-2]5([Cl])[n+]5ccccc54)n3)n1[B-]2(F)F (stereo not shown) [Compound 7b] |  |  |  | 
